# Read-outs that look alike come from different tables or passages of the source.
# Tests used:
# [1] = system: Streptococcus sp. Group B; test: agar-dilution MIC; format: cell-based; conditions: end point after 24 hours, Table 18
# From the text: The in vitro activity of antibiotic A41030 factors A and B against a number of representative aerobic, gram-positive bacteria, including Streptococcus sp. Group D, has been determined using a standard agar-dilution assay.
# Neisseria sp. = test: agar-dilution MIC; format: cell-based; conditions: Table 10
# Protocol: The test results are recorded in Table 10, which follows.
# [2] = system: Peptostreptococcus intermedius; test: agar-dilution MIC; format: cell-based
# Viridans streptococcus = test: agar-dilution MIC; format: cell-based; conditions: Table 11
# Shigella flexneri = Shigella flexneri SH-4; Table 11
# From the text: (§1) The agar-dilution procedure described by the International Collaborative study (ICS) group was used to determine the minimum inhibitory concentrations (MIC's).
# [3] = system: Staphylococcus epidermidis; test: agar-dilution MIC; format: cell-based
# From the text: as §1
# Bacteroides fragilis = test: agar-dilution MIC; format: cell-based
# From the text: as §1
# [4] = system: Haemophilus parainfluenzae; test: agar-dilution MIC; format: cell-based; conditions: end point after 24 hours, Table 18
# Clostridium difficile = format: cell-based
# Streptococcus faecalis = test: agar-dilution MIC; format: cell-based; conditions: Streptococcus faecalis X66; Table 7
# rumen fluid = test: in vitro rumen fluid fermentation, volatile fatty acids; parameters: species or system steer; conditions: 16 hours at 38° C.
# From the text: Rumen fluid was obtained from a steer having a surgically-installed fistula opening into the rumen. The steer was maintained on a high-grain ration, the composition of which follows: A sample of rumen fluid was strained through 4 layers of cheesecloth and the filtrate was collected in a vacuum bottle. The particulate matter retained by the cheesecloth was resuspended in enough physiological buffer to return it to the original volume of the rumen fluid, and the suspension was again strained through cheesecloth. The buffer used is described below: The two filtrates were pooled in a separatory funnel and allowed to stand till particulate matter rose to the top. The clear layer was then separated and diluted 1:1 with the same buffer, and adjusted to pH 7.0. Ten ml. of the diluted rumen fluid thus prepared was placed in a 25 ml. flask with 90 mg. of finely-powdered high-grain ration, the composition of which is described above. The compound to be tested was weighed out and dissolved in the appropriate solvent, supra. The solution was placed on the finely-powdered ration in each test flask and dried. Two sets of four untreated control flasks each were also prepared. One set of four untreated control flasks was incubated for 16 hours at 38° C. with the test flasks. […] Fermentation in the incubated test and control flasks was stopped at the end of 16 hours by addition of 2 ml. of 25 percent metaphosphoric acid to each flask. All of the samples were allowed to settle, and the supernatant was analyzed by gas chromatographic methods for acetate, propionate, and butyrate. The analysis for each volatile fatty acid found in the zero-time controls was substracted from the analyses of the untreated controls and of the test flasks. The resulting values reflect the amount of each VFA produced during the 16-hour fermentation period. The data below are reported as the ratio of VFA's produced in treated flasks to VFA's produced in untreated control flasks.
# S. pneumoniae = test: experimental bacterial infection in mice; format: in vivo; conditions: two doses subcutaneously
# Protocol: All of the A41030 factors tested have shown in vivo antimicrobial activity against experimental bacterial infections. When two doses of test compound were administered subcutaneously to mice in illustrative infections, the activity observed is measured as an ED50 value [effective dose in mg./kg. to protect fifty percent of the test animals: See Warren Wick, et al., J. Bacteriol. 81, 233-235 (1961)].
# [5] = B. fragilis 2, 24-hour, Table 12
# [6] = B. fragilis 9, 24-hour, Table 12
# [7] = B. fragilis 103, 24-hour, Table 12
# [8] = B. fragilis 104, 24-hour, Table 12
# [9] = B. fragilis 106, 24-hour, Table 12
# [10] = B. fragilis 107, 24-hour, Table 12
# [11] = B. fragilis 108, 24-hour, Table 12
# [12] = B. fragilis 110, 24-hour, Table 12
# [13] = B. fragilis 111, 24-hour, Table 12
# [14] = B. fragilis 112, 24-hour, Table 12
# [15] = B. fragilis 113, 24-hour, Table 12
# [16] = B. fragilis 1451, 24-hour, Table 12
# [17] = B. fragilis 1470, 24-hour, Table 12
# [18] = B. fragilis 1877, 24-hour, Table 12
# [19] = B. fragilis 9032, 24-hour, Table 12
# [20] = Bacteroides fragilis 1877, Table 14
# [21] = Bacteroides fragilis 1936B, Table 14
# [22] = Clostridium difficile 78, Table 16
# [23] = Clostridium difficile 107B, Table 16
# [24] = Clostridium difficile 111F, Table 16
# [25] = Clostridium difficile 1153, Table 16
# [26] = Clostridium difficile 2634, Table 16
# [27] = Clostridium difficile 2994, Table 14
# [28] = Clostridium difficile 3424-5B, Table 16
# [29] = Clostridium difficile 3816, Table 16
# [30] = Clostridium difficile 3950D, Table 16
# [31] = Clostridium difficile 6890, Table 16
# [32] = Clostridium difficile 8484, Table 16
# [33] = Clostridium difficile A-194, Table 16
# [34] = Clostridium difficile A-195, Table 16
# [35] = Clostridium difficile A-196, Table 16
# [36] = Clostridium difficile A-279, Table 16
# [37] = Clostridium difficile A-280, Table 16
# [38] = Clostridium difficile A-281, Table 16
# [39] = Clostridium difficile WAL-2112, Table 16
# [40] = Clostridium difficile WAL-3657, Table 16
# [41] = Clostridium difficile WAL-4268, Table 16
molecule,measurement,setting,value
NC1C(=O)NC2Cc3ccc(c(Cl)c3)Oc3cc4cc(c3O)Oc3ccc(cc3Cl)C(O)C3NC(=O)C(NC(=O)C4NC(=O)C(NC2=O)c2cc(O)cc(c2)Oc2cc1ccc2O)c1cc(Cl)c(O)c(c1)-c1c(O)cc(O)cc1C(C(=O)O)NC3=O (stereo not drawn) [A41030 factor A],MIC,[1]; Streptococcus sp. Group B 5,1 µg/mL
same,MIC,[1]; Streptococcus sp. Group B 14,0.06 µg/mL
same,MIC,Neisseria sp.; Neisseria sp. L. Nance,4.0 µg/mL
same,MIC,Neisseria sp.; Neisseria sp. Mitchell,4.0 µg/mL
same,MIC,Neisseria sp.; Neisseria sp. Sanders,1.0 µg/mL
same,MIC,Neisseria sp.; Neisseria sp. Schultz,8.0 µg/mL
same,MIC,Neisseria sp.; Neisseria sp. Woods,4.0 µg/mL
same,MIC,"[2]; Peptostreptococcus intermedius 1264, Table 14",1.0 µg/mL
same,MIC,"[2]; Ps. intermedius 1264, Table 15",≤ 0.03 µg/mL
same,MIC,"[2]; Ps. intermedius 1524, Table 15",0.5 µg/mL
same,MIC,"[2]; Ps. intermedius 1624, Table 15",1.0 µg/mL
same,MIC,Viridans streptococcus; Viridans streptococcus SM-1134,0.5 µg/mL
same,MIC,Viridans streptococcus; Viridans streptococcus SSI-910,0.25 µg/mL
same,MIC,Viridans streptococcus; Viridans streptococcus SSII-895,0.25 µg/mL
same,MIC,Shigella flexneri,64 µg/mL
same,MIC,"[3]; Staphylococcus epidermidis 219, end point after 24 hours, Table 18",0.06 µg/mL
same,MIC,"[3]; Staphylococcus epidermidis 269, end point after 24 hours, Table 18",0.06 µg/mL
same,MIC,"[3]; Staphylococcus epidermidis 270, end point after 24 hours, Table 18",0.06 µg/mL
same,MIC,"[3]; Staphylococcus epidermidis 285, end point after 24 hours, Table 18",0.06 µg/mL
same,MIC,"[3]; Staphylococcus epidermidis Britton, Table 11",0.13 µg/mL
same,MIC,"[3]; Staphylococcus epidermidis EPI2, Table 17",1 µg/mL
same,MIC,"[3]; Staphylococcus epidermidis Litton, Table 11",0.13 µg/mL
same,MIC,"[3]; Staphylococcus epidermidis Mencher, Table 11",≤ 0.06 µg/mL
same,MIC,"[3]; Staphylococcus epidermidis Mobley, Table 11",≤ 0.06 µg/mL
same,MIC,Bacteroides fragilis; [5],64 µg/mL
same,MIC,Bacteroides fragilis; [6],64 µg/mL
same,MIC,Bacteroides fragilis; [7],32 µg/mL
same,MIC,Bacteroides fragilis; [8],32 µg/mL
same,MIC,Bacteroides fragilis; [9],64 µg/mL
same,MIC,Bacteroides fragilis; [10],32 µg/mL
same,MIC,Bacteroides fragilis; [11],32 µg/mL
same,MIC,Bacteroides fragilis; [12],64 µg/mL
same,MIC,Bacteroides fragilis; [13],32 µg/mL
same,MIC,Bacteroides fragilis; [14],64 µg/mL
same,MIC,Bacteroides fragilis; [15],32 µg/mL
same,MIC,Bacteroides fragilis; [16],64 µg/mL
same,MIC,Bacteroides fragilis; [17],64 µg/mL
same,MIC,Bacteroides fragilis; [18],32 µg/mL
same,MIC,Bacteroides fragilis; [19],64 µg/mL
same,MIC,Bacteroides fragilis; [20],32 µg/mL
same,MIC,Bacteroides fragilis; [21],64 µg/mL
same,MIC,[4]; Haemophilus parainfluenzae 7901,16 µg/mL
same,MIC,[4]; Haemophilus parainfluenzae 9796,16 µg/mL
same,MIC,Clostridium difficile; [22],1.0 µg/mL
same,MIC,Clostridium difficile; [23],1.0 µg/mL
same,MIC,Clostridium difficile; [24],1.0 µg/mL
same,MIC,Clostridium difficile; [25],1.0 µg/mL
same,MIC,Clostridium difficile; [26],1.0 µg/mL
same,MIC,Clostridium difficile; [27],32 µg/mL
same,MIC,Clostridium difficile; [28],1.0 µg/mL
same,MIC,Clostridium difficile; [29],1.0 µg/mL
same,MIC,Clostridium difficile; [30],1.0 µg/mL
same,MIC,Clostridium difficile; [31],1.0 µg/mL
same,MIC,Clostridium difficile; [32],1.0 µg/mL
same,MIC,Clostridium difficile; [33],1.0 µg/mL
same,MIC,Clostridium difficile; [34],1.0 µg/mL
same,MIC,Clostridium difficile; [35],1.0 µg/mL
same,MIC,Clostridium difficile; [36],1.0 µg/mL
same,MIC,Clostridium difficile; [37],1.0 µg/mL
same,MIC,Clostridium difficile; [38],1.0 µg/mL
same,MIC,Clostridium difficile; [39],1.0 µg/mL
same,MIC,Clostridium difficile; [40],1.0 µg/mL
same,MIC,Clostridium difficile; [41],1.0 µg/mL
same,MIC,Streptococcus faecalis,< 0.5 µg/mL
same,"Acetate, ratio of VFA's produced in treated flasks to untreated control flasks",rumen fluid; 1 mcg./ml.,1.01
same,"Butyrate, ratio of VFA's produced in treated flasks to untreated control flasks",rumen fluid; 1 mcg./ml.,0.66
same,"Propionate, ratio of VFA's produced in treated flasks to untreated control flasks",rumen fluid; 1 mcg./ml.,1.31
same,"Acetate, ratio of VFA's produced in treated flasks to untreated control flasks",rumen fluid; 2 mcg./ml.,1.03
same,"Butyrate, ratio of VFA's produced in treated flasks to untreated control flasks",rumen fluid; 2 mcg./ml.,0.94
same,"Propionate, ratio of VFA's produced in treated flasks to untreated control flasks",rumen fluid; 2 mcg./ml.,1.33
A41030 factor C,MIC,"[2]; Ps. intermedius 1264, Table 15",≤ 0.03 µg/mL
same,MIC,"[2]; Ps. intermedius 1624, Table 15",1.0 µg/mL
same,MIC,"[3]; Staphylococcus epidermidis EPI1, Table 17",0.5 µg/mL
same,MIC,Bacteroides fragilis; [5],32 µg/mL
same,MIC,Bacteroides fragilis; [6],32 µg/mL
same,MIC,Bacteroides fragilis; [7],32 µg/mL
same,MIC,Bacteroides fragilis; [8],32 µg/mL
same,MIC,Bacteroides fragilis; [9],32 µg/mL
same,MIC,Bacteroides fragilis; [10],32 µg/mL
same,MIC,Bacteroides fragilis; [11],64 µg/mL
same,MIC,Bacteroides fragilis; [12],64 µg/mL
same,MIC,Bacteroides fragilis; [13],32 µg/mL
same,MIC,Bacteroides fragilis; [14],32 µg/mL
same,MIC,Bacteroides fragilis; [15],32 µg/mL
same,MIC,Bacteroides fragilis; [16],64 µg/mL
same,MIC,Bacteroides fragilis; [17],64 µg/mL
same,MIC,Bacteroides fragilis; [18],32 µg/mL
same,MIC,Bacteroides fragilis; [19],32 µg/mL
same,MIC,Bacteroides fragilis; [20],16 µg/mL
same,MIC,Bacteroides fragilis; [21],32 µg/mL
same,MIC,Clostridium difficile; [22],1.0 µg/mL
same,MIC,Clostridium difficile; [23],1.0 µg/mL
same,MIC,Clostridium difficile; [24],2 µg/mL
same,MIC,Clostridium difficile; [25],2 µg/mL
same,MIC,Clostridium difficile; [26],2 µg/mL
same,MIC,Clostridium difficile; [27],16 µg/mL
same,MIC,Clostridium difficile; [28],1.0 µg/mL
same,MIC,Clostridium difficile; [29],2 µg/mL
same,MIC,Clostridium difficile; [30],2 µg/mL
same,MIC,Clostridium difficile; [31],2 µg/mL
same,MIC,Clostridium difficile; [32],1.0 µg/mL
same,MIC,Clostridium difficile; [33],2 µg/mL
same,MIC,Clostridium difficile; [34],1.0 µg/mL
same,MIC,Clostridium difficile; [35],2 µg/mL
same,MIC,Clostridium difficile; [36],2 µg/mL
same,MIC,Clostridium difficile; [37],1.0 µg/mL
same,MIC,Clostridium difficile; [38],2 µg/mL
same,MIC,Clostridium difficile; [39],2 µg/mL
same,MIC,Clostridium difficile; [40],2 µg/mL
same,MIC,Clostridium difficile; [41],1.0 µg/mL
same,ED50,S. pneumoniae,6.7 mg/kg
